In US6531140B2, “Anti-irritant compositions containing a cyclic nucleotide” (E-L Management, priority 1999, dated 2003):

Columns and labels:
[1] = system: skin irritation caused by Balsam of Peru; assay: Balsam of Peru skin irritation test on ventral forearms of panelists (skin redness, Minolta Chromameter); type: in vivo, human; settings: topical; for Percent Reduction in the onset of irritation: Example 2, before Balsam of Peru
Excerpt: Eight female volunteer panelists between the ages of 21 and 55 having a history of skin sensitivity to Balsam of Peru are chosen for a study. […] The panelists have a history of skin reactivity to Balsam of Peru which manifests itself in the form of an immediate urticaria reaction. The test sites on the ventral forearms of the panelists are devoid of warts, nevi, moles, sunburn, suntan, scars and active dermal lesions. Pregnant or lactating volunteers are excluded. […] The composition is given time, about 20 minutes, to absorb into the skin on the forearm. Next, an irritant, Balsam of Peru, 8.00 percent in petrolatum, is applied to the test area of the skin and when redness appears within 30 to 40 minutes after application, Balsam of Peru is wiped off with a wet towel. Skin redness is measured with the Minolta Chromameter. Skin irritation is measured in terms of an increase in skin redness measured using a Minolta Chromameter and compared with a negative and a positive control. The positive control is the color of the skin treated solely with Balsam of Peru, and the negative control is the color of the skin treated with a cola […] solution in 10% hydroalcohol (1:1).

[2] = system: inflammatory parameters in atopic dermatitis; settings: in vivo; cited from earlier work
cAMP-PDE = settings: in vitro; cited from earlier work
cGMP-PDE = settings: in vitro; cited from earlier work

Compound | Percent Reduction in the onset of irritation ([1]; 1% concentration) | other results
CCCCOc1cc(CC2CNC(=O)N2)ccc1OC (centres unmarked) [Ro-12-1724] | 57% | 
COc1ccc(C2CNC(=O)NC2)cc1O[C@H]1C[C@@H]2CC[C@H]1C2 [CP80,633] |  | reduction of inflammatory parameters [2]: significant reduction of inflammatory parameters
Nc1ncnc2c1ncn2C1CC2OP(=O)(O)OCC2O1 (centres unmarked) [2′-deoxy cAMP, 2′-deoxy adenosine 3 ′5′ cyclic monophosphate] |  | reduction in the onset of irritation ([1]; Example 1, 0.5 percent in magnesium buffer, applied about 20 minutes before 8.00 percent Balsam of Peru in petrolatum, eight female panelists): 74%; Percent Reduction in the onset of irritation ([1]; 0.5% concentration): 71%; inhibition of cAMP-PDE (cAMP-PDE): specific and potent in vitro inhibitors
Nc1nc2c(ncn2[C@H]2C[C@@H]3OP(=O)(O)OC[C@H]3O2)c(=O)[nH]1 [2′-deoxy cGMP] |  | inhibition of cGMP-PDE (cGMP-PDE): specific and potent in vitro inhibitors
O=c1[nH]cnc2c1ncn2[C@@H]1O[C@@H]2COP(=O)(O)O[C@H]2[C@H]1O [cIMP, cyclic IMP] | 42% | 
CC(=O)CCCCn1c(=O)c2c(ncn2C)n(C)c1=O [Pentoxifylline, pentoxifylline] | 50% | 
COc1ccc(C2CNC(=O)C2)cc1OC1CCCC1 (centres unmarked) [Rolipram] | 69% | 
Cn1c(=O)c2c(ncn2C)n(C)c1=O [Caffeine, caffeine] | 45% | 
CC(C)Cn1c(=O)n(C)c(=O)c2[nH]cnc21 [IBMX, 3-isobutyl 1-methyl xanthine] | 66% | 
